The results in this text go back to patent US20250019371A1, “SMALL-MOLECULAR INHIBITORS FOR THE BETA-CATENIN/ B-CELL LYMPHOMA 9 PROTEIN-PROTEIN INTERACTION” (H. LEE MOFFITT CANCER CENTER AND RESEARCH INSTITUTE, INC., priority 2021, published 2025).

Like-named read-outs stand apart in the source and are kept apart here. Where only a bound is given, the exact number is not on record here.

Assay [1] relates to MDA-MB-231. As to the kind of experiment: MTS cell viability assay, MDA-MB-231. The format is cell-based. As to conditions: Homo sapiens, 72 h, Wnt/β-catenin hyperactive, mean ± SD (n = 3). As for the experimental part:
(§1) MTS Cell Growth Inhibition Experiments. Colorectal cancer cells (SW480 and HCT116) and triple negative breast cancer cells (MDA-MB-231 and MDA-MB-468) were seeded in 96-well plates at 5×10^3 cells/well in DMEM with 10% FCS, maintained overnight at 37° C., and incubated with the tested compounds at various concentrations. Human mammary epithelial cell MCF10A were seeded in 96-well plates at 1×10^4 cells/well in MEGM (CC-3150, Lonza) with 100 ng/mL cholera toxin, maintained overnight at 37° C., and incubated with the tested compounds at various concentrations. Cell viability was monitored after 72 h using a freshly prepared mixture of 1 part phenazine methosulfate (PMS, Sigma) solution (0.92 mg/mL) and 19 parts 3-(4,5-dimethylthiazol-2-yl)-5-(3-carboxymethoxyphenyl)-2-(4-sulfophenyl)-2H-tetrazolium (MTS, Promega) solution (2 mg/mL). Cells were incubated in 10 μL of this solution at 37° C. for 3 h, and A490 was measured. […] Experiments were performed in triplicate.
(Tetrazolium assays rely on reduction of a dye to a coloured formazan, in cell work by metabolically active cells.)

Assay [2] concerns Wnt/β-catenin hyperactive cancer cells. As to the kind of experiment: MTS cell viability assays, cell panel. The format is cell-based. Particulars: Homo sapiens, MCF-10A; all tested cells incl. MCF10A; read-out: MTS IC50 on all tested cells. As for the experimental part:
as §1

Assay [3] concerns SW480. As to the kind of experiment: MTS cell viability assay, SW480. The format is cell-based. As to conditions: Homo sapiens, 72 h, Wnt/β-catenin hyperactive, mean ± SD (n = 3). As for the experimental part:
as §1

Assay [4] relates to MCF10A. The experiment in a line: MTS cell viability assay, MCF10A. As to conditions: for IC50: Homo sapiens, MCF-10A, 72 h, Wnt/β-catenin normal, mean ± SD (n = 3). The class given is cell-based, human. As for the experimental part:
as §1

Assay [5] relates to MDA-MB-468. The experiment in a line: MTS cell viability assay, MDA-MB-468. The class given is cell-based. Particulars: Homo sapiens, 72 h, Wnt/β-catenin hyperactive, mean ± SD (n = 3). As for the experimental part: as §1
In assay [6] the target is T1, β-catenin/BCL9 PPI (Homo sapiens, UniProt P35222).
T1 construct: Full-length β-catenin (residues 1-781); host or cells: E. coli BL21 DE3
T1 sequence (P35222 1-781): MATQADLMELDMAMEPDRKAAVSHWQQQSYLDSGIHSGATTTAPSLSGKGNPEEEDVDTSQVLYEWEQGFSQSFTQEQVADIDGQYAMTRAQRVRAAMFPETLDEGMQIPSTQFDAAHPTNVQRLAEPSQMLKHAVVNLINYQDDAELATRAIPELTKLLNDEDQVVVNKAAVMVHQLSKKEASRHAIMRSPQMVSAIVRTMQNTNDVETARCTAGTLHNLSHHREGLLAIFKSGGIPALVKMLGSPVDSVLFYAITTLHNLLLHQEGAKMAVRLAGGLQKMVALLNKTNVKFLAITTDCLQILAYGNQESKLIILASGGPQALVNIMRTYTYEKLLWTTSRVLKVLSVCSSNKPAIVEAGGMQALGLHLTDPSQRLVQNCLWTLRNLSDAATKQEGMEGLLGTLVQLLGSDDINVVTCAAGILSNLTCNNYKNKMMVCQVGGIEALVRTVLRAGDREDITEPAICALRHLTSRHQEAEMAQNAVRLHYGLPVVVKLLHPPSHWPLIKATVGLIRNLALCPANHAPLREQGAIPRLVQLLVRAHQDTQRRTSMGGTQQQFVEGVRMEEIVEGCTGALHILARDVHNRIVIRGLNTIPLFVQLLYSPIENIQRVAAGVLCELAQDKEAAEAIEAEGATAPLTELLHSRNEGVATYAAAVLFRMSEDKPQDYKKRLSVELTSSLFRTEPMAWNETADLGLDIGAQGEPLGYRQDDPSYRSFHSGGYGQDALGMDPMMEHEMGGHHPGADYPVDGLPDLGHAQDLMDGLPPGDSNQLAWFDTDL
The experiment in a line: AlphaScreen competitive inhibition assay of β-catenin/BCL9 PPI. The class given is binding. Particulars: for AlphaScreen inhibitory activity in words: SAR comparison. As for the experimental part: AlphaScreen Assays of β-Catenin and BCL9 Interaction. Experiments were performed in white opaque 384-well plates from PerkinElmer (Waltham, MA), and the samples were read on a Biotek Synergy 2 plate reader (Winooski, VT) with excitation at 680 nm and emission at 570 nm. The standard AlphaScreen protocol was used with a sensitivity setting of 200. All dilutions were made in 1x assay buffer containing 25 mM Hepes (pH 7.4), 100 mM NaCl, 0.01% Triton X-100 and 0.1% BSA to minimize nonspecific interactions.
For the β-catenin/BCL9 assay, 5 nM biotinylated BCL9, and 50 nM His6-tagged 8-catenin were incubated in assay buffer for 30 min. Different concentrations of the tested inhibitor were added and incubated in 20 μL assay buffer for another 1 h. All of the assay plates were covered and gently mixed on an orbital shaker. Donor and acceptor beads were then added to the plates to a final concentration of 10 μg/mL in 25 μL assay buffer. The mixture was incubated for 1 h before detection. The IC50 value was determined by nonlinear least-square analysis of GraphPad Prism 8.0. […] All of the experiments were performed in triplicate and carried out in the presence of 1% DMSO for small-molecule inhibitors. Each compound was assayed at least by three independent experiments. The results were expressed as mean±standard deviation.
For orientation: Alpha assays give light when donor and acceptor beads are brought close together.

Assay [7] relates to HCT116. The experiment in a line: MTS cell viability assay, HCT116. The format is cell-based. As to conditions: Homo sapiens, HCT-116; 72 h, Wnt/β-catenin hyperactive, mean ± SD (n = 3). As for the experimental part:
as §1

Assay [8] concerns Wnt/β-catenin signaling (TOPFlash luciferase reporter). The experiment in a line: TOPFlash luciferase reporter assay in SW480 cells. The format is cell-based. As to conditions: Homo sapiens, 24 h. As for the experimental part:
The suppressing effect of the inhibitors on transactivation of Wnt/β-catenin signaling was evaluated by the TOPFlash/FOPFlash luciferase reporter assay. In the TOPFlash assay, the luciferase reporter has three wild-type Tcf4 binding sites, while in the FOPFlash assay Tcf4 binding sites were mutated. These tandem Tcf binding sites controls the expression ratio of the firefly luciferase in TOPFlash/FOPFlash assays. The renilla luciferase reporter construct (pCMV-RL) was used as the internal control to normalize luciferase reporter signals and eliminate any possible systematic errors. […] This selectivity trend is consistent with that from MTS cell viability assays. Therefore, further cell-based studies were focused on compound 30.
Cell Transfection and Luciferase Assay. FuGENE6 (E269A, Promega) 96 well plate format was used for the transfection of SW480 cells according to the manufacturer's instruction. SW480 cells were co-transfected with 60 ng the TOPFlash or FOPFlash firefly luciferase reporter gene and 40 ng renilla luciferase pCMV-RL normalization reporter gene. Cells were cultured in DMEM and 10% FBS at 37° C. for 24 h, and different concentrations of inhibitors or DMSO was added. After 24 h, the luciferase reporter activity was measured using the Dual-Glo system (E2940, Promega). […]
(In a reporter assay the amount or activity of a reporter protein is the signal.)

By IC50 is commonly meant the concentration that inhibits the measured activity by half. Regarding `CC(C)(C)OC(=O)C(C)(C)Oc1cccc(N2CCCC(C(=O)N(Cc3ccc(-c4cccs4)cc3)C3CC3)C2)c1` (centres unmarked) [Compound 17, tert-Butyl 2-(3-(3-(cyclopropyl(4-(thiophen-2-yl)benzyl)carbamoyl)piperidin-1-yl)phenoxy)-2-methylpropanoate], the IC50 in assay [1] was greater than 200 µM; in assay [2], greater than 200 µM; in assay [3], greater than 200 µM; in assay [4] it was greater than 200 µM; in assay [5] it was greater than 200 µM; in assay [6] (Table 1, AlphaScreen, inhibitors 16-26), greater than 100 µM. Moreover, the 50% inhibitory concentration (IC50) in assay [7] is greater than 200 µM. Moreover, the Ki in assay [6] (AlphaScreen competitive inhibition assay, read-out: Ki for disruption of the β-catenin/BCL9 PPI) was greater than 90 µM; in assay [6] (Table 1, AlphaScreen, inhibitors 16-26, Ki derived from IC50, read-out: Ki) it was greater than 90 µM. Besides, the “AlphaScreen inhibitory activity in words” value in assay [6] is “significant potency loss”.

Consider `COc1cccc(S(=O)(=O)NC(=O)C(C)(C)Oc2cccc(N3CCC[C@H](C(=O)N(Cc4ccc(-c5cccs5)cc4)C4CC4)C3)c2)c1` [Compound 28, (S)—N-Cyclopropyl-1-(3-((1-((3-methoxyphenyl)sulfonamido)-2-methyl-1-oxopropan-2-yl)oxy)phenyl)-N-(4-(thiophen-2-yl)benzyl) piperidine-3-carboxamide], for which the 50% inhibitory concentration (IC50) in assay [1] is 19.8 ± 1.59 µM; in assay [3], 28.2 ± 1.08 µM; in assay [4], 30.4 ± 2.47 µM; in assay [5] it was 15.4 ± 2.49 µM; in assay [6] (Table 2, AlphaScreen, inhibitors 27-30 (R- and S-isomers), preliminary), no more than 5 µM; in assay [8], 7.8 µM. This compound also gave an IC50 in assay [7] of 29.9 ± 1.99 µM. Besides, the “selectivity for hyperactive cancer cells over normal MCF10A cells” value in assay [4] (MTS IC50 MCF10A versus cancer cells) was “much less selective over MCF10A cells”. Also, the “AlphaScreen inhibitory activity in words” value in assay [6] is “slightly superior to R-isomer”. Besides, the Ki in assay [6] (Table 2, AlphaScreen, inhibitors 27-30 (R- and S-isomers), preliminary, read-out: Ki) was no more than 5 µM.
